Activity calls are given as the source filed them. The calls are words filed in the database; no cut-off is given here.
How the values were obtained:
[1] = system: Hordeum vulgare; assay: Inhibition of fatty acid synthesis in Hordeum vulgare (barley) using [14C]malonate assessed as inhibition of [14C]-labeled 18C fatty acid production at 200 uM after 3 hr by liquid scintillation counting; assay type: functional, organism-based
[2] = system: Hordeum vulgare; assay: Inhibition of fatty acid synthesis in Hordeum vulgare (barley) using [14C]acetate assessed as [14C]-labeled 22C fatty acid level at 200 uM after 3 hr by liquid scintillation counting (reference value: 5.5 +/- 0.2%); assay type: functional; design: scale not given: the % may be the effect or the level left
[3] = system: Hordeum vulgare; assay: Inhibition of fatty acid synthesis in Hordeum vulgare (barley) using [14C]acetate assessed as [14C]-labeled 18C fatty acid level at 200 uM after 3 hr by liquid scintillation counting (reference value: 60.3 +/- 1.3%); assay type: functional; design: scale not given: the % may be the effect or the level left
[4] = system: Cucumis sativus; assay: Inhibition of fatty acid synthesis in Cucumis sativus (cucumber) using [14C]malonate assessed as inhibition of [14C]-labeled 22C fatty acid production at 200 uM after 3 hr by liquid scintillation counting; assay type: functional, organism-based
[5] = system: Cucumis sativus; assay: Inhibition of fatty acid synthesis in Cucumis sativus (cucumber) using [14C]malonate assessed as inhibition of [14C]-labeled 18C fatty acid production at 200 uM after 3 hr by liquid scintillation counting; assay type: functional, organism-based
[6] = system: Cucumis sativus; assay: Inhibition of fatty acid synthesis in Cucumis sativus (cucumber) using [14C]acetate assessed as [14C]-labeled 20C fatty acid level at 200 uM after 3 hr by liquid scintillation counting (reference value: 5.1 +/- 0.7%); assay type: functional; design: scale not given: the % may be the effect or the level left
[7] = system: Cucumis sativus; assay: Inhibition of fatty acid synthesis in Cucumis sativus (cucumber) using [14C]acetate assessed as [14C]-labeled 16C fatty acid level at 200 uM after 3 hr by liquid scintillation counting (reference value: 29.2 +/- 3.5%); assay type: functional; design: scale not given: the % may be the effect or the level left
[8] = system: Hordeum vulgare; assay: Inhibition of fatty acid synthesis in Hordeum vulgare (barley) using [14C]malonate assessed as inhibition of [14C]-labeled 20C fatty acid production at 200 uM after 3 hr by liquid scintillation counting; assay type: functional, organism-based
[9] = system: Hordeum vulgare; assay: Inhibition of fatty acid synthesis in Hordeum vulgare (barley) assessed as inhibition of [14C]malonate incoporation in total fatty acids at 200 uM measured after 3 hr by liquid scintillation counting; assay type: functional, organism-based
[10] = system: Hordeum vulgare; assay: Inhibition of fatty acid synthesis in Hordeum vulgare (barley) using [14C]malonate assessed as inhibition of [14C]-labeled 22C fatty acid production at 200 uM after 3 hr by liquid scintillation counting; assay type: functional, organism-based
[11] = system: Cucumis sativus; assay: Inhibition of fatty acid synthesis in Cucumis sativus (cucumber) using [14C]malonate assessed as inhibition of [14C]-labeled 16C fatty acid production at 200 uM after 3 hr by liquid scintillation counting; assay type: functional, organism-based
[12] = system: Cucumis sativus; assay: (§1) Inhibition of fatty acid synthesis in Cucumis sativus (cucumber) assessed as inhibition of [14C]acetate incoporation in total fatty acids at 200 uM measured as total disintegration per g of fresh weight after 3 hr by liquid scintillation counting (reference value: 6.4 +/- 1.2 dpm x 10^6 g'1 fresh wt); assay type: functional
[13] = system: Cucumis sativus; assay: Inhibition of fatty acid synthesis in Cucumis sativus (cucumber) using [14C]malonate assessed as inhibition of [14C]-labeled 20C fatty acid production at 200 uM after 3 hr by liquid scintillation counting; assay type: functional, organism-based
[14] = system: Cucumis sativus; assay: Inhibition of fatty acid synthesis in Cucumis sativus (cucumber) assessed as inhibition of [14C]malonate incoporation in total fatty acids at 200 uM measured after 3 hr by liquid scintillation counting; assay type: functional, organism-based
[15] = system: Hordeum vulgare; assay: Inhibition of fatty acid synthesis in Hordeum vulgare (barley) using [14C]acetate assessed as [14C]-labeled 20C fatty acid level at 200 uM after 3 hr by liquid scintillation counting (reference value: 4.7 +/- 1.6%); assay type: functional; design: scale not given: the % may be the effect or the level left
[16] = system: Cucumis sativus; assay: Inhibition of fatty acid synthesis in Cucumis sativus (cucumber) using [14C]acetate assessed as [14C]-labeled 24C fatty acid level at 200 uM after 3 hr by liquid scintillation counting (reference value: 6.5 +/- 1%); assay type: functional; design: scale not given: the % may be the effect or the level left
[17] = system: Cucumis sativus; assay: Inhibition of fatty acid synthesis in Cucumis sativus (cucumber) using [14C]acetate assessed as [14C]-labeled 18C fatty acid level at 200 uM after 3 hr by liquid scintillation counting (reference value: 41.2 +/- 1.1%); assay type: functional; design: scale not given: the % may be the effect or the level left
[18] = system: Cucumis sativus; assay: Inhibition of fatty acid synthesis in Cucumis sativus (cucumber) using [14C]malonate assessed as inhibition of [14C]-labeled 24C fatty acid production at 200 uM after 3 hr by liquid scintillation counting; assay type: functional, organism-based
[19] = system: Hordeum vulgare; assay: Inhibition of fatty acid synthesis in Hordeum vulgare (barley) using [14C]malonate assessed as inhibition of [14C]-labeled 16C fatty acid production at 200 uM after 3 hr by liquid scintillation counting; assay type: functional, organism-based
[20] = system: Hordeum vulgare; assay: Inhibition of fatty acid synthesis in Hordeum vulgare (barley) using [14C]acetate assessed as [14C]-labeled 16C fatty acid level at 200 uM after 3 hr by liquid scintillation counting (reference value: 29.5 +/- 1.3%); assay type: functional; design: scale not given: the % may be the effect or the level left
[21] = system: Hordeum vulgare; assay: Inhibition of fatty acid synthesis in Hordeum vulgare (barley) assessed as inhibition of [14C]acetate incoporation in total fatty acids at 200 uM measured as total disintegration per g of fresh weight after 3 hr by liquid scintillation counting (reference value: 5.7 +/- 0.5 dpm x 10^6 g'1 fresh wt); assay type: functional
[22] = system: Hordeum vulgare; assay: Inhibition of fatty acid synthesis in Hordeum vulgare (barley) using [14C]malonate assessed as inhibition of [14C]-labeled 24C fatty acid production at 200 uM after 3 hr by liquid scintillation counting; assay type: functional, organism-based
[23] = system: Cucumis sativus; assay: Inhibition of fatty acid synthesis in Cucumis sativus (cucumber) using [14C]acetate assessed as [14C]-labeled 22C fatty acid level at 200 uM after 3 hr by liquid scintillation counting (reference value: 17.9 +/- 2.5%); assay type: functional; design: scale not given: the % may be the effect or the level left
[24] = system: Hordeum vulgare; assay: Inhibition of fatty acid synthesis in Hordeum vulgare (barley) using [14C]acetate assessed as [14C]-labeled 20C fatty acid level at 300 uM after 3 hr by liquid scintillation counting (reference value: 4.7 +/- 1.6%); assay type: functional; design: scale not given: the % may be the effect or the level left
[25] = system: Cucumis sativus; assay: Inhibition of fatty acid synthesis in Cucumis sativus (cucumber) using [14C]malonate assessed as inhibition of [14C]-labeled 16C fatty acid production at 300 uM after 3 hr by liquid scintillation counting; assay type: functional, organism-based
[26] = system: Cucumis sativus; assay: as §1, with “300” for “200”; assay type: functional
[27] = system: Cucumis sativus; assay: Inhibition of fatty acid synthesis in Cucumis sativus (cucumber) using [14C]malonate assessed as inhibition of [14C]-labeled 24C fatty acid production at 300 uM after 3 hr by liquid scintillation counting; assay type: functional, organism-based
[28] = system: Hordeum vulgare; assay: Inhibition of fatty acid synthesis in Hordeum vulgare (barley) using [14C]acetate assessed as [14C]-labeled 18C fatty acid level at 300 uM after 3 hr by liquid scintillation counting (reference value: 60.3 +/- 1.3%); assay type: functional; design: scale not given: the % may be the effect or the level left
[29] = system: Cucumis sativus; assay: Inhibition of fatty acid synthesis in Cucumis sativus (cucumber) using [14C]malonate assessed as inhibition of [14C]-labeled 22C fatty acid production at 300 uM after 3 hr by liquid scintillation counting; assay type: functional, organism-based
[30] = system: Hordeum vulgare; assay: Inhibition of fatty acid synthesis in Hordeum vulgare (barley) using [14C]acetate assessed as [14C]-labeled 22C fatty acid level at 300 uM after 3 hr by liquid scintillation counting (reference value: 5.5 +/- 0.2%); assay type: functional; design: scale not given: the % may be the effect or the level left
[31] = system: Cucumis sativus; assay: Inhibition of fatty acid synthesis in Cucumis sativus (cucumber) using [14C]acetate assessed as [14C]-labeled 20C fatty acid level at 300 uM after 3 hr by liquid scintillation counting (reference value: 5.1 +/- 0.7%); assay type: functional; design: scale not given: the % may be the effect or the level left
[32] = system: Hordeum vulgare; assay: Inhibition of fatty acid synthesis in Hordeum vulgare (barley) assessed as inhibition of [14C]acetate incoporation in total fatty acids at 300 uM measured as total disintegration per g of fresh weight after 3 hr by liquid scintillation counting (reference value: 5.7 +/- 0.5 dpm x 10^6 g'1 fresh wt); assay type: functional
[33] = system: Hordeum vulgare; assay: Inhibition of fatty acid synthesis in Hordeum vulgare (barley) using [14C]malonate assessed as inhibition of [14C]-labeled 24C fatty acid production at 300 uM after 3 hr by liquid scintillation counting; assay type: functional, organism-based
[34] = system: Hordeum vulgare; assay: Inhibition of fatty acid synthesis in Hordeum vulgare (barley) using [14C]malonate assessed as inhibition of [14C]-labeled 22C fatty acid production at 300 uM after 3 hr by liquid scintillation counting; assay type: functional, organism-based
[35] = system: Hordeum vulgare; assay: Inhibition of fatty acid synthesis in Hordeum vulgare (barley) assessed as inhibition of [14C]malonate incoporation in total fatty acids at 300 uM measured after 3 hr by liquid scintillation counting; assay type: functional, organism-based
[36] = system: Cucumis sativus; assay: Inhibition of fatty acid synthesis in Cucumis sativus (cucumber) using [14C]acetate assessed as [14C]-labeled 22C fatty acid level at 300 uM after 3 hr by liquid scintillation counting (reference value: 17.9 +/- 2.5%); assay type: functional; design: scale not given: the % may be the effect or the level left
[37] = system: Cucumis sativus; assay: Inhibition of fatty acid synthesis in Cucumis sativus (cucumber) using [14C]malonate assessed as inhibition of [14C]-labeled 18C fatty acid production at 300 uM after 3 hr by liquid scintillation counting; assay type: functional, organism-based
[38] = system: Hordeum vulgare; assay: Inhibition of fatty acid synthesis in Hordeum vulgare (barley) using [14C]acetate assessed as [14C]-labeled 16C fatty acid level at 300 uM after 3 hr by liquid scintillation counting (reference value: 29.5 +/- 1.3%); assay type: functional; design: scale not given: the % may be the effect or the level left
[39] = system: Cucumis sativus; assay: Inhibition of fatty acid synthesis in Cucumis sativus (cucumber) using [14C]malonate assessed as inhibition of [14C]-labeled 20C fatty acid production at 300 uM after 3 hr by liquid scintillation counting; assay type: functional, organism-based
[40] = system: Cucumis sativus; assay: Inhibition of fatty acid synthesis in Cucumis sativus (cucumber) assessed as inhibition of [14C]malonate incoporation in total fatty acids at 300 uM measured after 3 hr by liquid scintillation counting; assay type: functional, organism-based
[41] = system: Cucumis sativus; assay: Inhibition of fatty acid synthesis in Cucumis sativus (cucumber) using [14C]acetate assessed as [14C]-labeled 24C fatty acid level at 300 uM after 3 hr by liquid scintillation counting (reference value: 6.5 +/- 1%); assay type: functional; design: scale not given: the % may be the effect or the level left
[42] = system: Cucumis sativus; assay: Inhibition of fatty acid synthesis in Cucumis sativus (cucumber) using [14C]acetate assessed as [14C]-labeled 16C fatty acid level at 300 uM after 3 hr by liquid scintillation counting (reference value: 29.2 +/- 3.5%); assay type: functional; design: scale not given: the % may be the effect or the level left
[43] = system: Hordeum vulgare; assay: Inhibition of fatty acid synthesis in Hordeum vulgare (barley) using [14C]malonate assessed as inhibition of [14C]-labeled 16C fatty acid production at 300 uM after 3 hr by liquid scintillation counting; assay type: functional, organism-based
[44] = system: Hordeum vulgare; assay: Inhibition of fatty acid synthesis in Hordeum vulgare (barley) using [14C]malonate assessed as inhibition of [14C]-labeled 20C fatty acid production at 300 uM after 3 hr by liquid scintillation counting; assay type: functional, organism-based
[45] = system: Cucumis sativus; assay: Inhibition of fatty acid synthesis in Cucumis sativus (cucumber) using [14C]acetate assessed as [14C]-labeled 18C fatty acid level at 300 uM after 3 hr by liquid scintillation counting (reference value: 41.2 +/- 1.1%); assay type: functional; design: scale not given: the % may be the effect or the level left
[46] = system: Hordeum vulgare; assay: Inhibition of fatty acid synthesis in Hordeum vulgare (barley) using [14C]malonate assessed as inhibition of [14C]-labeled 18C fatty acid production at 300 uM after 3 hr by liquid scintillation counting; assay type: functional, organism-based

SMILES: Cc1ccccc1CO[C@H]1C[C@]2(C(C)C)CC[C@@]1(C)O2 (relative stereo) [REL-CINMETHYLIN]
- inhibition [1]: inactive
- Activity [2]: 5.8%
- Activity [3]: 67.7%
- inhibition [4]: inactive
- inhibition [5]: inactive
- Activity [6]: 4.8%
- Activity [7]: 28.9%
- inhibition [8]: inactive
- inhibition [9]: inactive
- inhibition [10]: inactive
- inhibition [11]: inactive
- Activity [12]: 8.4 ×10⁶ dpm
- inhibition [13]: inactive
- inhibition [14]: inactive
- Activity [15]: 5.7%
- Activity [16]: 4.2%
- Activity [17]: 48.6%
- inhibition [18]: inactive
- inhibition [19]: inactive
- Activity [20]: 20.9%
- Activity [21]: 5.1 ×10⁶ dpm
- inhibition [22]: inactive
- Activity [23]: 13.4%

SMILES: CN(C)C(=O)C(c1ccccc1)c1ccccc1 [DIPHENAMIDE]
- Activity [24]: 7.9%
- inhibition [25]: inactive
- Activity [26]: 6.9 ×10⁶ dpm
- inhibition [27]: inactive
- Activity [28]: 66.1%
- inhibition [29]: inactive
- Activity [30]: 7.6%
- Activity [31]: 6.1%
- Activity [32]: 4 ×10⁶ dpm
- inhibition [33]: inactive
- inhibition [34]: inactive
- inhibition [35]: inactive
- Activity [36]: 13.9%
- inhibition [37]: inactive
- Activity [38]: 18.4%
- inhibition [39]: inactive
- inhibition [40]: inactive
- Activity [41]: 5.1%
- Activity [42]: 26.8%
- inhibition [43]: inactive
- inhibition [44]: inactive
- Activity [45]: 48.1%
- inhibition [46]: inactive

— ChEMBL document CHEMBL3044779, “The action of herbicides on fatty acid biosynthesis and elongation in barley and cucumber” (Pest Manag Sci, 2010)
